Measurements reported in PMC11555173, “Preparation and preliminary evaluation of a tritium-labeled allosteric P2X4 receptor antagonist” (Purinergic Signalling, 2024).
“Also recorded” adds a separate entry of the source. Where two headings read alike, the source gives them in different places.

Key:
human P2X4 receptor [1] = target: T1, human P2X4 receptor (Homo sapiens, UniProt Q99571); assay: [3H]PSB-OR-2020 radioligand binding assay, HEK293 cell membranes expressing human P2X4 receptor; parameters: expressed in transfected cells; host or cells: HEK293 cells, transient transfection (pQCXIN; pcDNA3.1(-) was also tried)
T1 sequence (Q99571 1-388): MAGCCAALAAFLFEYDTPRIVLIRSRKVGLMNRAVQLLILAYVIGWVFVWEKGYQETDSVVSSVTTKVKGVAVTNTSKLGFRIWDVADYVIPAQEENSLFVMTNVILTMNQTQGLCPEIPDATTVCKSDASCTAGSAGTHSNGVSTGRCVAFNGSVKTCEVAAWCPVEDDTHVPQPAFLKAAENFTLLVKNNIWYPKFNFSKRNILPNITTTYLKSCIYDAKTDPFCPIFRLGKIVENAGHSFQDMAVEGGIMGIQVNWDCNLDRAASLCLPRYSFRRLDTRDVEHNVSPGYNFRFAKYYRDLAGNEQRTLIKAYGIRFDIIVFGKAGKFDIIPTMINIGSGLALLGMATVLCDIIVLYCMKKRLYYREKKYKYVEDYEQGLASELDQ

human P2X4 receptor [2] = target: T1, human P2X4 receptor; assay: Calcium influx assay, 1321N1 astrocytoma cells stably expressing human P2X4 receptor; assay type: cell-based; parameters: expressed in transfected cells
Method: Calcium influx assays using 1321N1 astrocytoma cells that stably expressed the human P2X4 receptor were performed. Concentration-dependent inhibition of ATP-induced calcium influx was observed.
(§1) To determine the effects of the compound on P2X4, P2X2, and P2X7 receptors, the agonist-mediated increases in cytosolic Ca^2+ concentrations were measured using the fluorescent Ca^2+ chelating dye Fluo-4 acetoxymethyl ester (AM) (Thermo Fisher Scientific). On the first day, 1321N1 astrocytoma cells (45.000 cells/well) stably expressing the respective P2X receptor were seeded into a 96-well plate (No. 3340, Corning, Kennebunk, Maine, USA), and incubated at 37 °C and 10% of CO2. […]
(§2) Following the incubation, the dye solution was carefully removed, and the antagonist (dissolved in DMSO) and HBSS buffer were added to the cells. […] To activate the receptors, transparent 96-well reagent plates (Boettger, Bodenmais, Germany) containing the agonists dissolved in HBSS buffer (10-fold concentration of previously determined EC80) were prepared. The plates were measured after 30 min of preincubation with antagonist with the imaging plate reader NOVOstar (BMG Labtech GmbH, Offenburg, Germany) at 520 nm for 30 s at 0.4 s intervals.

P2X4 receptor [3] = system: P2X4 receptor; parameters: method as in PMID 36150180; details: ref [38]; cited from earlier work
P2X4 receptor [4] = system: P2X4 receptor; parameters: method as in PMID 35338432; details: ref [44]; cited from earlier work
human P2X4 receptor [5] = target: T1, human P2X4 receptor; parameters: expressed in transfected cells; host or cells: HEK293 cells, transient transfection (pQCXIN; pcDNA3.1(-) was also tried); details: ref Müller et al. [36]; cited from earlier work
P2X4 = system: P2X4; parameters: method as in PMID 30537520, PMID 34476721; details: ref [14], [36]; cited from earlier work
human P2X2 = target: T2, human P2X2 (Homo sapiens, UniProt Q9UBL9); assay: Calcium influx assay, 1321N1 astrocytoma cells stably expressing human P2X2 receptor; assay type: cell-based
T2 construct: expressed in transfected cells
T2 sequence (Q9UBL9 1-471): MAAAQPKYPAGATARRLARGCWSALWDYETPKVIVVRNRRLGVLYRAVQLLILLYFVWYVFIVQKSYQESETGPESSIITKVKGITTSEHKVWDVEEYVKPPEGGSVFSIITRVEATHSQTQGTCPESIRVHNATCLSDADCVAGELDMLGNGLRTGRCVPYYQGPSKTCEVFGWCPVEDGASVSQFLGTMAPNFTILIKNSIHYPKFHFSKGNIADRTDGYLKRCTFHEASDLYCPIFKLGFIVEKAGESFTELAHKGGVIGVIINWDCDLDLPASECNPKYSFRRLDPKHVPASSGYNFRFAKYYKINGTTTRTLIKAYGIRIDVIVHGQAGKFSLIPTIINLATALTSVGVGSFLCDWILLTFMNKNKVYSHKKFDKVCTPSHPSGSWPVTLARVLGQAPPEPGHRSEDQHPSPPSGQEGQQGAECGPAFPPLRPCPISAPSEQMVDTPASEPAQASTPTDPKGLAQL

human P2X7 = target: T3, human P2X7 (Homo sapiens, UniProt Q99572); assay: Calcium influx assay, 1321N1 astrocytoma cells stably expressing human P2X7 receptor (agonist Bz-ATP); assay type: cell-based; details: Bz-ATP 6,000 nM (EC80)
T3 construct: expressed in transfected cells
T3 sequence (Q99572 1-595): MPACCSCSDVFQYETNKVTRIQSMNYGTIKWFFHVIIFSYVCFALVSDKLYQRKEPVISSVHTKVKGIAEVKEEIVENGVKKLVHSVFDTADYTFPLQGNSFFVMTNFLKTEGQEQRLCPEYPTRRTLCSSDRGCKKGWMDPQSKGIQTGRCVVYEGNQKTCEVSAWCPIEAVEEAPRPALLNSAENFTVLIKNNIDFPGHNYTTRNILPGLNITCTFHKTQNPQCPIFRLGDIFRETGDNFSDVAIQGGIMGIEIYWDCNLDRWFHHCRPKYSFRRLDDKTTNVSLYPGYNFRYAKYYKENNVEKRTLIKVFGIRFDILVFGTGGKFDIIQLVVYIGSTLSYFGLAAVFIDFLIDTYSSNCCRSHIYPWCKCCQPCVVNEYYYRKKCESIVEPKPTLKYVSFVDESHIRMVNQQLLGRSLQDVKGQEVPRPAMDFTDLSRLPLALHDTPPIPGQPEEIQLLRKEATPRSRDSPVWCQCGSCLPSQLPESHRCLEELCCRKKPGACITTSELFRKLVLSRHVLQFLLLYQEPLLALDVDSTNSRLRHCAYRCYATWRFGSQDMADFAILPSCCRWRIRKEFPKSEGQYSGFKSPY
Method: (§3) The selectivity of PSB-OR-2020 versus other P2X receptor subtypes was determined in the same type of assay using 1321N1 astrocytoma cells stably expressing the respective human P2X receptor subtype (see Table 1).
as §1, §2

human P2X1 = target: T4, human P2X1 (Homo sapiens, UniProt P51575); assay: Calcium influx assay, 1321N1 astrocytoma cells stably expressing human P2X1 receptor; assay type: cell-based
T4 construct: expressed in transfected cells
T4 sequence (P51575 1-399): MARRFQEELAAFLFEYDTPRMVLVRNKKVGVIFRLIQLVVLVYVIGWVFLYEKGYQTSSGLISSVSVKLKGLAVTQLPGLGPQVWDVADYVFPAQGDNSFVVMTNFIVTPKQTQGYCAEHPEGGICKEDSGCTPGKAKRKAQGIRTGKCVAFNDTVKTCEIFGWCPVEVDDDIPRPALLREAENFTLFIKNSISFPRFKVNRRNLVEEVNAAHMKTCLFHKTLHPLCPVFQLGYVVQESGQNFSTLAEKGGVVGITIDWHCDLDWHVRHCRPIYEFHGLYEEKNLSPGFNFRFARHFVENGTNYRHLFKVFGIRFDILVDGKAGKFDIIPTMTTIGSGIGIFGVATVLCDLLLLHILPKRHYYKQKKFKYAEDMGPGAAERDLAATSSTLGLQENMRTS
Method: as §3, §1, §2

human P2X3 = target: T5, human P2X3 (Homo sapiens, UniProt P56373); assay: Calcium influx assay, 1321N1 astrocytoma cells stably expressing human P2X3 receptor; assay type: cell-based
T5 construct: expressed in transfected cells
T5 sequence (P56373 1-397): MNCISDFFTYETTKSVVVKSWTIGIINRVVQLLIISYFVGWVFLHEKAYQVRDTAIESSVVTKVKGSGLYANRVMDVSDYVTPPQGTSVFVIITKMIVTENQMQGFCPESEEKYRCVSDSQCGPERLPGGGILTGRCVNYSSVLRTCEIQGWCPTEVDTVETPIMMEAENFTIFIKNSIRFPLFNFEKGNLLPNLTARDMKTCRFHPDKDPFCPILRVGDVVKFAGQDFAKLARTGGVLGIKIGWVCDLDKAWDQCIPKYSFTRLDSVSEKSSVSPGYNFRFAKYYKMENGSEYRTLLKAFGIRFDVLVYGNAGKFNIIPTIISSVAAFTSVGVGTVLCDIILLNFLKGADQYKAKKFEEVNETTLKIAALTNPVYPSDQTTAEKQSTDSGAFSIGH
Method: as §3, §1, §2

[6] = high concentration of competitor, radioligand 10 nM
[7] = 4 °C, three independent association and dissociation experiments, read-out: kinetic KD value (koff/kon)
[8] = vs. [3H]PSB-OR-2020 (10 nM), HEK293 membranes, human P2X4, read-out: KD value, homologous competition binding
[9] = 4 °C, radioligand 10 nM, HEK293 membranes, human P2X4

In the case of `Nc1ncnc2c1ncn2[C@@H]1O[C@H](COP(=O)(O)OP(=O)(O)OP(=O)(O)O)[C@@H](O)[C@H]1O` [ATP, Adenosine 5’-triphosphate, reference compound], the “displacement of [3H]PSB-OR-2020 from its binding site” value (“displacement” below) (human P2X4 receptor [1]; [6]) is reported as “only slightly displaced; also recorded: does not compete” and the “EC80 concentration of agonist” value (human P2X4 receptor [2]; human P2X4, calcium influx) is reported as 0.3 µM.

In the case of `CC(C)c1cc(Br)c(NC(=O)Nc2cccnc2)c(Br)c1` [BX430, reference compound], the “displacement” value (human P2X4 receptor [1]; [6]) is reported as “not or only partially be displaced” and the “displacement” value (human P2X4 receptor [1]; high concentrations of competitor, radioligand 10 nM) is reported as “less than 40%”.

In the case of `O=C1CC(=O)N(c2ccnc(-c3noc(=S)[nH]3)c2)c2ccc3ccccc3c2N1` [MRS4719], the “effects in a murine ischemic stroke model” value (P2X4 receptor [3]) is listed as “neuroprotective and neuro-rehabilitative effects”.

For `O=C1CC(=O)N(c2cccc(-c3noc(=S)[nH]3)c2)c2ccc3ccccc3c2N1` [NP-1815-PX], the “effects in a murine model of colitis” value (P2X4 receptor [4]) is given as “improve several inflammatory parameters”.

For `Cc1nsc(-c2ccc(C)c(NCC(=O)c3c[nH]c4ccccc34)c2)n1` [PSB-15417], the “displacement” value (human P2X4 receptor [1]; [6]) is listed as “completely displaced”, the IC50 (human P2X4 receptor [5]) is listed as 0.0219 µM and the “efficacy in an animal model of neuropathic pain” value (P2X4) is listed as “showing efficacy”.

With `Cc1nsc(-c2ccc(C)c(NCC(=O)N3CCc4c3cccc4[C@](C)(O)CO)c2)n1` [PSB-OR-2020, (S)-1-(4-(1,2-dihydroxypropane-2yl)indolin-1-yl)-2-((2-methyl-5-(3-methyl-1,2,4-thiadiazol-5-yl)phenyl)amino)ethane-1-one] the IC50 (human P2X2) was over 10 µM, the Kd (human P2X4 receptor [1]; [7]) was 0.00706 ± 0.00323 µM and the Bmax value (human P2X4 receptor [1]; homologous competition binding, HEK293 membranes, human P2X4) was 71.7 fmol/mg of protein. It also gave a Kd (human P2X4 receptor [1]; [8]) of 0.0204 ± 0.0075 µM, an IC50 (human P2X4 receptor [2]; read-out: IC50 ± SEM, inhibition of ATP-induced Ca2+ influx) of 0.00632 ± 0.00152 µM and an IC50 (human P2X7) of over 10 µM. For the same molecule, the IC50 (human P2X1) was over 10 µM, the IC50 (human P2X3) was 2.03 µM and the “IC50 at P2X3 receptor relative to IC50 at P2X4 receptor” value (human P2X3; P2X3 vs P2X4 selectivity) was “about 300 fold”.

With `[3H]c1cc2c(c([C@](C)(O)CO)c1)CCN2C(=O)CNc1cc(-c2nc(C)ns2)c([3H])cc1C` [[^3H]PSB-OR-2020] the association half-life (human P2X4 receptor [1]; [9]) was 8.44 ± 2.59 min, the dissociation half-life (human P2X4 receptor [1]; [9]) was 20.4 ± 2.9 min and the Kd (human P2X4 receptor [1]; [7]) was 0.00706 ± 0.00323 µM. The Kd (human P2X4 receptor [1]; [8]) was 0.0204 µM.
